The test system of this assay is CD2F1 mice, L1210 leukemia ip, survival T/C. Kind of assay: NCI In Vivo Anticancer Drug Screen. Data for tumor model L1210 Leukemia (intraperitoneal) in CD2F1 (CDF1) mice. The conditions noted are these: higher = longer survival. The method, boiled down: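 Vehicle-treated tumor-bearing mice served as controls (C) for compound-treated mice (T). Reported figure is T divided by C.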

Where “and” joins values, the source holds several entries; their conditions need not be identical. Equal values may be shown once. Inconclusive results and toxic doses are left out.

As to `OC(C1CO1)C(O)C1CO1` (stereo not drawn), the T/C (endpoint: mean survival time, dose: 0.13 mg/kg/injection, schedule: Q03HX008 (ip), vehicle: saline) was 101 % of control; the T/C (endpoint: mean survival time, dose: 0.25 mg/kg/injection, schedule: Q03HX008 (ip), vehicle: saline) was 105 % of control; the T/C (endpoint: mean survival time, dose: 0.25 mg/kg/injection, schedule: Q03HX016 (ip), vehicle: saline) is 104 % of control; the T/C (endpoint: mean survival time, dose: 0.25 mg/kg/injection, schedule: Q03HX024 (ip), vehicle: saline) is 104 % of control; the T/C (endpoint: mean survival time, dose: 0.5 mg/kg/injection, schedule: Q01DX009 (ip), vehicle: saline) was 117 % of control and 119 % of control and 121 % of control; the T/C (endpoint: mean survival time, dose: 0.5 mg/kg/injection, schedule: Q01DX009 (sc), vehicle: saline) was 104 % of control. Moreover, the T/C reads like this: (endpoint: mean survival time, dose: 0.5 mg/kg/injection, schedule: Q03HX008 (ip), vehicle: saline) 112 % of control; (endpoint: mean survival time, dose: 0.5 mg/kg/injection, schedule: Q03HX016 (ip), vehicle: saline) 115 % of control; (endpoint: mean survival time, dose: 1.0 mg/kg/injection, schedule: Q01DX001 (ip), vehicle: saline) 98 % of control and 108 % of control; (endpoint: mean survival time, dose: 1.0 mg/kg/injection, schedule: Q01DX001 (sc), vehicle: saline) 106 % of control; (endpoint: mean survival time, dose: 1.0 mg/kg/injection, schedule: Q01DX009 (sc), vehicle: saline) 114 % of control; (endpoint: mean survival time, dose: 1.0 mg/kg/injection, schedule: Q03HX024 (ip), vehicle: saline) 177 % of control. The T/C was 107 % of control (endpoint: mean survival time, dose: 1.0 mg/kg/injection, schedule: Q04DX003 (ip), vehicle: saline); 96 % of control (endpoint: mean survival time, dose: 1.4 mg/kg/injection, schedule: Q04DX003 (ip), vehicle: saline); 116 % of control and 111 % of control (endpoint: mean survival time, dose: 2.0 mg/kg/injection, schedule: Q01DX001 (ip), vehicle: saline); 111 % of control (endpoint: mean survival time, dose: 2.0 mg/kg/injection, schedule: Q01DX001 (sc), vehicle: saline); 171 % of control (endpoint: mean survival time, dose: 2.0 mg/kg/injection, schedule: Q03HX008 (ip), vehicle: saline); 201 % of control (endpoint: mean survival time, dose: 2.0 mg/kg/injection, schedule: Q03HX016 (ip), vehicle: saline). Also, the T/C (endpoint: mean survival time, dose: 2.0 mg/kg/injection, schedule: Q03HX024 (ip), vehicle: saline) was 109 % of control; the T/C (endpoint: mean survival time, dose: 2.0 mg/kg/injection, schedule: Q04DX003 (ip), vehicle: saline) was 123 % of control and 104 % of control and 112 % of control; the T/C (endpoint: mean survival time, dose: 2.0 mg/kg/injection, schedule: Q08DX002 (ip), vehicle: saline) is 118 % of control; the T/C (endpoint: mean survival time, dose: 3.0 mg/kg/injection, schedule: Q01DX009 (ip), vehicle: saline) is 192 % of control; the T/C (endpoint: mean survival time, dose: 3.0 mg/kg/injection, schedule: Q04DX003 (ip), vehicle: saline) is 119 % of control; the T/C (endpoint: mean survival time, dose: 4.0 mg/kg/injection, schedule: Q01DX001 (ip), vehicle: saline) is 115 % of control and 121 % of control. The T/C (endpoint: mean survival time, dose: 4.0 mg/kg/injection, schedule: Q01DX001 (sc), vehicle: saline) was 112 % of control; the T/C (endpoint: mean survival time, dose: 4.0 mg/kg/injection, schedule: Q01DX009 (ip), vehicle: saline) was 204 % of control and 247 % of control; the T/C (endpoint: mean survival time, dose: 4.0 mg/kg/injection, schedule: Q01DX009 (sc), vehicle: saline) is 163 % of control; the T/C (endpoint: mean survival time, dose: 4.6 mg/kg/injection, schedule: Q01DX009 (ip), vehicle: saline) is 182 % of control; the T/C (endpoint: mean survival time, dose: 4.6 mg/kg/injection, schedule: Q04DX003 (ip), vehicle: saline) was 162 % of control; the T/C (endpoint: mean survival time, dose: 5.0 mg/kg/injection, schedule: Q01DX001 (ip), vehicle: saline) is 123 % of control. Moreover, the T/C runs as follows: (endpoint: mean survival time, dose: 6.7 mg/kg/injection, schedule: Q04DX003 (ip), vehicle: saline) 171 % of control; (endpoint: mean survival time, dose: 7.0 mg/kg/injection, schedule: Q01DX001 (ip), vehicle: saline) 156 % of control; (endpoint: mean survival time, dose: 7.0 mg/kg/injection, schedule: Q01DX009 (ip), vehicle: saline) 106 % of control; (endpoint: mean survival time, dose: 7.0 mg/kg/injection, schedule: Q04DX003 (ip), vehicle: saline) 190 % of control; (endpoint: mean survival time, dose: 8.0 mg/kg/injection, schedule: Q01DX001 (ip), vehicle: saline) 155 % of control and 156 % of control; (endpoint: mean survival time, dose: 8.0 mg/kg/injection, schedule: Q01DX009 (ip), vehicle: saline) 96 % of control and 97 % of control. The T/C is, setting by setting: (endpoint: mean survival time, dose: 8.0 mg/kg/injection, schedule: Q01DX009 (sc), vehicle: saline) 105 % of control; (endpoint: mean survival time, dose: 8.0 mg/kg/injection, schedule: Q04DX003 (ip), vehicle: saline) 189 % of control and 446 % of control; (endpoint: mean survival time, dose: 8.0 mg/kg/injection, schedule: Q08DX002 (ip), vehicle: saline) 184 % of control; (endpoint: mean survival time, dose: 10.0 mg/kg/injection, schedule: Q04DX003 (ip), vehicle: saline) 288 % of control; (endpoint: mean survival time, dose: 10.6 mg/kg/injection, schedule: Q01DX009 (ip), vehicle: saline) 100 % of control; (endpoint: mean survival time, dose: 10.6 mg/kg/injection, schedule: Q04DX003 (ip), vehicle: saline) 243 % of control. Moreover, the T/C (endpoint: mean survival time, dose: 16.0 mg/kg/injection, schedule: Q01DX001 (ip), vehicle: saline) was 175 % of control; the T/C (endpoint: mean survival time, dose: 16.0 mg/kg/injection, schedule: Q01DX001 (sc), vehicle: saline) is 174 % of control; the T/C (endpoint: mean survival time, dose: 16.0 mg/kg/injection, schedule: Q04DX003 (ip), vehicle: saline) was 116 % of control; the T/C (endpoint: mean survival time, dose: 16.0 mg/kg/injection, schedule: Q08DX002 (ip), vehicle: saline) was 162 % of control; the T/C (endpoint: mean survival time, dose: 20.0 mg/kg/injection, schedule: Q01DX001 (ip), vehicle: saline) is 92 % of control; the T/C (endpoint: median survival time, dose: 2.0 mg/kg/injection, schedule: Q01DX001 (ip), vehicle: saline) is 119 % of control and 104 % of control. Besides, the T/C (endpoint: median survival time, dose: 4.0 mg/kg/injection, schedule: Q01DX001 (ip), vehicle: saline) was 117 % of control; the T/C (endpoint: median survival time, dose: 4.0 mg/kg/injection, schedule: Q03DX003 (ip), vehicle: saline) was 175 % of control and 222 % of control; the T/C (endpoint: median survival time, dose: 6.0 mg/kg/injection, schedule: Q03DX003 (ip), vehicle: saline) was 189 % of control and 266 % of control; the T/C (endpoint: median survival time, dose: 8.0 mg/kg/injection, schedule: Q03DX003 (ip), vehicle: saline) is 206 % of control and 253 % of control; the T/C (endpoint: median survival time, dose: 12.0 mg/kg/injection, schedule: Q03DX003 (ip), vehicle: saline) was 229 % of control; the T/C (endpoint: median survival time, dose: 16.0 mg/kg/injection, schedule: Q01DX001 (ip), vehicle: saline) is 168 % of control and 182 % of control. Further, the T/C is, setting by setting: (endpoint: median survival time, dose: 32.0 mg/kg/injection, schedule: Q01DX001 (ip), vehicle: saline) 113 % of control and 104 % of control; (endpoint: median survival time, dose: 64.0 mg/kg/injection, schedule: Q01DX001 (ip), vehicle: saline) 117 % of control and 105 % of control.

For `C=Cn1ccnc1`, the T/C is 103 % of control (endpoint: mean survival time, dose: 25.0 mg/kg/injection, schedule: Q01DX001 (ip), vehicle: saline with Tween-80); 100 % of control (endpoint: mean survival time, dose: 50.0 mg/kg/injection, schedule: Q01DX001 (ip), vehicle: saline with Tween-80); 114 % of control and 118 % of control (endpoint: mean survival time, dose: 100.0 mg/kg/injection, schedule: Q01DX001 (ip), vehicle: saline with Tween-80); 97 % of control (endpoint: mean survival time, dose: 200.0 mg/kg/injection, schedule: Q01DX001 (ip), vehicle: saline with Tween-80); 101 % of control (endpoint: mean survival time, dose: 400.0 mg/kg/injection, schedule: Q01DX001 (ip), vehicle: saline with Tween-80).

For `O=C1CCC2(C=C(Br)C(=O)C(Br)=C2)O1`, the T/C is, setting by setting: (endpoint: mean survival time, dose: 5.0 mg/kg/injection, schedule: Q01DX009 (ip), vehicle: saline with Tween-80) 98 % of control; (endpoint: mean survival time, dose: 5.0 mg/kg/injection, schedule: Q04DX003 (ip), vehicle: saline with Tween-80) 103 % of control; (endpoint: mean survival time, dose: 10.0 mg/kg/injection, schedule: Q04DX003 (ip), vehicle: saline with Tween-80) 105 % of control; (endpoint: mean survival time, dose: 20.0 mg/kg/injection, schedule: Q04DX003 (ip), vehicle: saline with Tween-80) 101 % of control.

As to `Nc1ncnc2nc(C(O)C(O)C(O)CO)[nH]c12` (stereo not drawn), the T/C (endpoint: median survival time, dose: 12.5 mg/kg/injection, schedule: Q01DX005 (ip), vehicle: distilled water + Tween-80) is 102 % of control; the T/C (endpoint: median survival time, dose: 25.0 mg/kg/injection, schedule: Q01DX005 (ip), vehicle: distilled water + Tween-80) is 96 % of control; the T/C (endpoint: median survival time, dose: 50.0 mg/kg/injection, schedule: Q01DX005 (ip), vehicle: distilled water + Tween-80) is 98 % of control; the T/C (endpoint: median survival time, dose: 100.0 mg/kg/injection, schedule: Q01DX005 (ip), vehicle: distilled water + Tween-80) was 98 % of control; the T/C (endpoint: median survival time, dose: 200.0 mg/kg/injection, schedule: Q01DX005 (ip), vehicle: distilled water + Tween-80) was 106 % of control.

Regarding `NC(=O)c1cc2ccncc2c2ccccc12`, the T/C was 97 % of control (endpoint: mean survival time, dose: 100.0 mg/kg/injection, schedule: Q04DX003 (ip), vehicle: saline with Tween-80); 97 % of control (endpoint: mean survival time, dose: 200.0 mg/kg/injection, schedule: Q04DX003 (ip), vehicle: saline with Tween-80); 106 % of control (endpoint: mean survival time, dose: 400.0 mg/kg/injection, schedule: Q04DX003 (ip), vehicle: saline with Tween-80).

Source of the values: PubChem BioAssay AID256 (DTP/NCI, 2004).
